System: 596521-263-R-J1-PDC complex spheroid growth
Assay: Anticancer human tumor 596521-263-R-J1-PDC patient-derived soft tissue sarcoma cell line growth inhibition [Asc]
Details: for IC50: curve of first compound; for viability, T/C: stronger effect = lower value
Summary of the method: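 Concentration series start at each agent's clinical Cmax, or at 10 microM when none is established, and drop in half-log steps; agents are applied alone or together to complex spheroids built with HUVEC and hMSC.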

[1] = second compound 0.0316 µM, first compound 0.00316 µM
[2] = second compound 0.0316 µM, first compound 0.01 µM
[3] = second compound 0.0316 µM, first compound 0.0316 µM
[4] = second compound 0.0316 µM, first compound 0.1 µM
[5] = second compound 0.1 µM, first compound 0.00316 µM
[6] = second compound 0.1 µM, first compound 0.01 µM
[7] = second compound 0.1 µM, first compound 0.0316 µM
[8] = second compound 0.1 µM, first compound 0.1 µM
[9] = second compound 0.316 µM, first compound 0.00316 µM
[10] = second compound 0.316 µM, first compound 0.01 µM
[11] = second compound 0.316 µM, first compound 0.0316 µM
[12] = second compound 0.316 µM, first compound 0.1 µM
[13] = second compound 1 µM, first compound 0.00316 µM
[14] = second compound 1 µM, first compound 0.01 µM
[15] = second compound 1 µM, first compound 0.0316 µM
[16] = second compound 1 µM, first compound 0.1 µM
[17] = second compound 3.16 µM, first compound 0.00316 µM
[18] = second compound 3.16 µM, first compound 0.01 µM
[19] = second compound 3.16 µM, first compound 0.0316 µM
[20] = second compound 3.16 µM, first compound 0.1 µM
[21] = second compound 10 µM, first compound 0.00316 µM
[22] = second compound 10 µM, first compound 0.01 µM
[23] = second compound 10 µM, first compound 0.0316 µM
[24] = second compound 10 µM, first compound 0.1 µM
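Further: spheroids exposed to compounds for 7 days.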

Structure (SMILES): COc1c(OCCCN2CCOCC2)ccc2c3n(c(=NC(=O)c4cnc(N)nc4)nc12)CCN3 + Cc1c(S(C)(=O)=O)c(-c2cc(F)cc(N3CCN(c4ccc(NS(=O)(=O)c5ccc(NC(CCN6CCC(C(=O)OCCCP(=O)(O)O)CC6)CSc6ccccc6)c(S(=O)(=O)C(F)(F)F)c5)cc4)CC3)c2)c(-c2ccc(Cl)cc2)n1C(C)C
- IC50 (second compound 0.0316 µM): 211 nM
- IC50 (second compound 0.1 µM): 142 nM
- IC50 (second compound 0.316 µM): 138 nM
- IC50 (second compound 1 µM): 73.7 nM
- IC50 (second compound 3.16 µM): 55.3 nM
- IC50 (second compound 10 µM): 8.21 nM
- viability, T/C [1]: 95.5%
- viability, T/C [2]: 90.8%
- viability, T/C [3]: 79.2%
- viability, T/C [4]: 67.3%
- viability, T/C (second compound 0.0316 µM, first compound 0.316 µM): 39.9%
- viability, T/C (second compound 0.0316 µM, first compound 1 µM): 29.4%
- viability, T/C [5]: 89.6%
- viability, T/C [6]: 92.5%
- viability, T/C [7]: 84.2%
- viability, T/C [8]: 54.6%
- viability, T/C (second compound 0.1 µM, first compound 0.316 µM): 37.6%
- viability, T/C (second compound 0.1 µM, first compound 1 µM): 25.6%
- viability, T/C [9]: 85.6%
- viability, T/C [10]: 84.2%
- viability, T/C [11]: 65.9%
- viability, T/C [12]: 58.1%
- viability, T/C (second compound 0.316 µM, first compound 0.316 µM): 36.1%
- viability, T/C (second compound 0.316 µM, first compound 1 µM): 25.4%
- viability, T/C [13]: 91.6%
- viability, T/C [14]: 76.1%
- viability, T/C [15]: 62%
- viability, T/C [16]: 47%
- viability, T/C (second compound 1 µM, first compound 0.316 µM): 31.3%
- viability, T/C (second compound 1 µM, first compound 1 µM): 24.9%
- viability, T/C [17]: 61.5%
- viability, T/C [18]: 62.9%
- viability, T/C [19]: 55.9%
- viability, T/C [20]: 43.1%
- viability, T/C (second compound 3.16 µM, first compound 0.316 µM): 27.1%
- viability, T/C (second compound 3.16 µM, first compound 1 µM): 18.5%
- viability, T/C [21]: 52.4%
- viability, T/C [22]: 50%
- viability, T/C [23]: 42.9%
- viability, T/C [24]: 41.2%
- viability, T/C (second compound 10 µM, first compound 0.316 µM): 24.8%
- viability, T/C (second compound 10 µM, first compound 1 µM): 13.4%

Structure (SMILES): NC(=O)C(=Cn1cnc(-c2cc(C(F)(F)F)cc(C(F)(F)F)c2)n1)c1cncnc1 + Cc1c(S(C)(=O)=O)c(-c2cc(F)cc(N3CCN(c4ccc(NS(=O)(=O)c5ccc(NC(CCN6CCC(C(=O)OCCCP(=O)(O)O)CC6)CSc6ccccc6)c(S(=O)(=O)C(F)(F)F)c5)cc4)CC3)c2)c(-c2ccc(Cl)cc2)n1C(C)C
- IC50 (second compound 0.0316 µM): 27.2 nM
- IC50 (second compound 0.1 µM): 25.1 nM
- IC50 (second compound 0.316 µM): 18.8 nM
- IC50 (second compound 1 µM): 15.5 nM
- IC50 (second compound 3.16 µM): 8.57 nM
- IC50 (second compound 10 µM): < 0.949 nM
- viability, T/C (second compound 0.0316 µM, first compound 0.000949 µM): 98.4%
- viability, T/C (second compound 0.0316 µM, first compound 0.003 µM): 101%
- viability, T/C (second compound 0.0316 µM, first compound 0.00949 µM): 80.7%
- viability, T/C (second compound 0.0316 µM, first compound 0.03 µM): 49.4%
- viability, T/C (second compound 0.0316 µM, first compound 0.0949 µM): 10.3%
- viability, T/C (second compound 0.0316 µM, first compound 0.3 µM): 4.54%
- viability, T/C (second compound 0.1 µM, first compound 0.000949 µM): 84.2%
- viability, T/C (second compound 0.1 µM, first compound 0.003 µM): 94.9%
- viability, T/C (second compound 0.1 µM, first compound 0.00949 µM): 71.8%
- viability, T/C (second compound 0.1 µM, first compound 0.03 µM): 48.5%
- viability, T/C (second compound 0.1 µM, first compound 0.0949 µM): 6.86%
- viability, T/C (second compound 0.1 µM, first compound 0.3 µM): 2.64%
- viability, T/C (second compound 0.316 µM, first compound 0.000949 µM): 94.8%
- viability, T/C (second compound 0.316 µM, first compound 0.003 µM): 82.6%
- viability, T/C (second compound 0.316 µM, first compound 0.00949 µM): 71.9%
- viability, T/C (second compound 0.316 µM, first compound 0.03 µM): 36.9%
- viability, T/C (second compound 0.316 µM, first compound 0.0949 µM): 5.33%
- viability, T/C (second compound 0.316 µM, first compound 0.3 µM): 1.97%
- viability, T/C (second compound 1 µM, first compound 0.000949 µM): 76%
- viability, T/C (second compound 1 µM, first compound 0.003 µM): 80.1%
- viability, T/C (second compound 1 µM, first compound 0.00949 µM): 57.9%
- viability, T/C (second compound 1 µM, first compound 0.03 µM): 37.2%
- viability, T/C (second compound 1 µM, first compound 0.0949 µM): 3.95%
- viability, T/C (second compound 1 µM, first compound 0.3 µM): 1.71%
- viability, T/C (second compound 3.16 µM, first compound 0.000949 µM): 68.7%
- viability, T/C (second compound 3.16 µM, first compound 0.003 µM): 57.7%
- viability, T/C (second compound 3.16 µM, first compound 0.00949 µM): 50.6%
- viability, T/C (second compound 3.16 µM, first compound 0.03 µM): 21.3%
- viability, T/C (second compound 3.16 µM, first compound 0.0949 µM): 3.51%
- viability, T/C (second compound 3.16 µM, first compound 0.3 µM): 1.52%
- viability, T/C (second compound 10 µM, first compound 0.000949 µM): 47.4%
- viability, T/C (second compound 10 µM, first compound 0.003 µM): 51.3%
- viability, T/C (second compound 10 µM, first compound 0.00949 µM): 35.7%
- viability, T/C (second compound 10 µM, first compound 0.03 µM): 23.6%
- viability, T/C (second compound 10 µM, first compound 0.0949 µM): 3.04%
- viability, T/C (second compound 10 µM, first compound 0.3 µM): 1.13%

Structure (SMILES): NC1CCC(NC2CC2c2ccccc2)CC1 (stereo unspecified) + Cc1c(S(C)(=O)=O)c(-c2cc(F)cc(N3CCN(c4ccc(NS(=O)(=O)c5ccc(NC(CCN6CCC(C(=O)OCCCP(=O)(O)O)CC6)CSc6ccccc6)c(S(=O)(=O)C(F)(F)F)c5)cc4)CC3)c2)c(-c2ccc(Cl)cc2)n1C(C)C
- IC50 (second compound 0.0316 µM): > 100 nM
- IC50 (second compound 0.1 µM): > 100 nM
- IC50 (second compound 0.316 µM): > 100 nM
- IC50 (second compound 1 µM): > 100 nM
- IC50 (second compound 3.16 µM): > 100 nM
- IC50 (second compound 10 µM): < 0.316 nM
- viability, T/C (second compound 0.0316 µM, first compound 0.000316 µM): 79.8%
- viability, T/C (second compound 0.0316 µM, first compound 0.001 µM): 88.9%
- viability, T/C [1]: 80.2%
- viability, T/C [2]: 90.4%
- viability, T/C [3]: 89.2%
- viability, T/C [4]: 80.6%
- viability, T/C (second compound 0.1 µM, first compound 0.000316 µM): 86.7%
- viability, T/C (second compound 0.1 µM, first compound 0.001 µM): 91.8%
- viability, T/C [5]: 77.5%
- viability, T/C [6]: 89.7%
- viability, T/C [7]: 86.5%
- viability, T/C [8]: 80.8%
- viability, T/C (second compound 0.316 µM, first compound 0.000316 µM): 84.1%
- viability, T/C (second compound 0.316 µM, first compound 0.001 µM): 77.6%
- viability, T/C [9]: 75.9%
- viability, T/C [10]: 77.9%
- viability, T/C [11]: 76.7%
- viability, T/C [12]: 75.7%
- viability, T/C (second compound 1 µM, first compound 0.000316 µM): 81.2%
- viability, T/C (second compound 1 µM, first compound 0.001 µM): 75.8%
- viability, T/C [13]: 66.3%
- viability, T/C [14]: 72.7%
- viability, T/C [15]: 68.7%
- viability, T/C [16]: 74.1%
- viability, T/C (second compound 3.16 µM, first compound 0.000316 µM): 69.1%
- viability, T/C (second compound 3.16 µM, first compound 0.001 µM): 55.7%
- viability, T/C [17]: 51.9%
- viability, T/C [18]: 58.9%
- viability, T/C [19]: 55.4%
- viability, T/C [20]: 53.4%
- viability, T/C (second compound 10 µM, first compound 0.000316 µM): 48.6%
- viability, T/C (second compound 10 µM, first compound 0.001 µM): 42.9%
- viability, T/C [21]: 44.2%
- viability, T/C [22]: 49%
- viability, T/C [23]: 35.7%
- viability, T/C [24]: 43%

From PubChem BioAssay AID1963449 (Molecular Pharmacology Branch, DTP, NCI, 2024)
